# Assay results: patent US9695155B2, “Herbicidal substituted pyrimidinyloxy benzene compounds” (E. I. DU PONT DE NEMOURS AND COMPANY, priority 2013, dated 2017)
# Legend:
# large (Lg) crabgrass [1] = experiment: Test A preemergence; type: in vivo, Digitaria sanguinalis
# In short: (§1)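 Pre- and postemergence greenhouse screen. Soil: loam + sand. Spray carrier: solvent mixture, non-phytotoxic, with surfactant. Post timing at 1–2 leaves, height 2–10 cm. Readout: visual injury on a 0–100 scale roughly 10 days after application, untreated plants as reference.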
# barnyardgrass = experiment: Test C postemergence; type: in vivo, Echinochloa crus-galli
# In short: (§2)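 Visual ratings on a 0–100 scale (100 = complete control) were made versus untreated controls after 13–15 greenhouse days. Chemicals in a surfactant-containing non-phytotoxic solvent were applied either preemergence to seeds in loam–sand soil or postemergence to 1- to 4-leaf plants 2–18 cm tall.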
# wild oat = experiment: Test C postemergence; type: in vivo, Avena fatua
# In short: as §2
# corn [2] = experiment: Test C postemergence; type: in vivo, Zea mays
# In short: as §2
# pigweed [3] = experiment: Test C postemergence; type: in vivo, Amaranthus retroflexus
# In short: as §2
# waterhemp = experiment: Test C postemergence; type: in vivo, Amaranthus rudis
# In short: as §2
# pigweed [4] = experiment: Test A postemergence; type: in vivo, Amaranthus retroflexus; conditions: 0 to 100 scale where 0 is no effect and 100 is complete control
# In short: as §1
# giant foxtail = experiment: Test C postemergence; type: in vivo, Setaria faberii
# In short: as §2
# pigweed [5] = experiment: Test A preemergence; type: in vivo, Amaranthus retroflexus
# In short: as §1
# Italian ryegrass = experiment: Test C postemergence; type: in vivo, Lolium multiflorum
# In short: as §2
# soybean = experiment: Test C postemergence; type: in vivo, Glycine max
# In short: as §2
# morningglory = experiment: Test A postemergence; type: in vivo, Ipomoea spp.; conditions: 0 to 100 scale where 0 is no effect and 100 is complete control
# In short: as §1
# large (Lg) crabgrass [6] = experiment: Test A postemergence; type: in vivo, Digitaria sanguinalis; conditions: 0 to 100 scale where 0 is no effect and 100 is complete control
# In short: as §1
# kochia = experiment: Test C postemergence; type: in vivo, Kochia scoparia
# In short: as §2
# johnsongrass = experiment: Test C postemergence; type: in vivo, Sorghum halepense
# In short: as §2
# velvetleaf [7] = experiment: Test A preemergence; type: in vivo, Abutilon theophrasti
# In short: as §1
# velvetleaf [8] = experiment: Test A postemergence; type: in vivo, Abutilon theophrasti; conditions: 0 to 100 scale where 0 is no effect and 100 is complete control
# In short: as §1
# corn [9] = experiment: Test A postemergence; type: in vivo, Zea mays; conditions: 0 to 100 scale where 0 is no effect and 100 is complete control
# In short: as §1
# [10] = 500 g ai/ha, 0 to 100 scale where 0 is no effect and 100 is complete control
# [11] = 16 g ai/ha, postemergence, 0 is no effect, 100 is complete control
# [12] = 31 g ai/ha, postemergence, visual rating, scale 0 to 100 (0 no effect, 100 complete control), 13 to 15 days
# [13] = 125 g ai/ha, postemergence, visual rating, scale 0 to 100 (0 no effect, 100 complete control)
# [14] = Postemergence, 62 g ai/ha, scale 0 to 100 (0 no effect, 100 complete control)
smiles,measurement,setting,value
Clc1cnc(Oc2cccc(Cl)c2-n2cc(I)cn2)nc1 [Compound 181],"Crabgrass, Large plant response rating (0 to 100 scale)",large (Lg) crabgrass [1]; 125 g ai/ha,100
same,"Crabgrass, Large plant response rating",large (Lg) crabgrass [1]; [10],100
same,"Plant response rating (0 to 100), Barnyardgrass",barnyardgrass; [11],5
same,Barnyardgrass plant response rating,barnyardgrass; [12],5
same,"Plant response rating, Barnyardgrass",barnyardgrass; [13],10
same,"Plant response rating, Barnyardgrass",barnyardgrass; [14],10
same,"Plant response rating (0 to 100), Oat, Wild",wild oat; [11],0
same,"Oat, Wild plant response rating",wild oat; [12],5
same,"Plant response rating, Oat, Wild",wild oat; [13],5
same,"Plant response rating, Oat, Wild",wild oat; [14],5
same,"Plant response rating (0 to 100), Corn",corn [2]; [11],5
same,Corn plant response rating,corn [2]; [12],5
same,"Plant response rating, Corn",corn [2]; [13],5
same,"Plant response rating, Corn",corn [2]; [14],5
same,"Plant response rating (0 to 100), Pigweed",pigweed [3]; [11],85
same,Pigweed plant response rating,pigweed [3]; [12],98
same,"Plant response rating, Pigweed",pigweed [3]; [13],98
same,"Plant response rating, Pigweed",pigweed [3]; [14],85
same,"Plant response rating (0 to 100), Waterhemp",waterhemp; [11],80
same,Waterhemp plant response rating,waterhemp; [12],85
same,"Plant response rating, Waterhemp",waterhemp; [13],98
same,"Plant response rating, Waterhemp",waterhemp; [14],85
same,Pigweed plant response rating,pigweed [4]; 125 g ai/ha,100
same,"Plant response rating, Pigweed",pigweed [4]; 500 g ai/ha,100
same,"Plant response rating (0 to 100), Foxtail, Giant",giant foxtail; [11],10
same,"Foxtail, Giant plant response rating",giant foxtail; [12],10
same,"Plant response rating, Foxtail, Giant",giant foxtail; [13],10
same,"Plant response rating, Foxtail, Giant",giant foxtail; [14],25
same,Pigweed plant response rating (0 to 100 scale),pigweed [5]; 125 g ai/ha,100
same,Pigweed plant response rating,pigweed [5]; [10],100
same,"Plant response rating (0 to 100), Ryegrass, Italian",Italian ryegrass; [11],0
same,"Ryegrass, Italian plant response rating",Italian ryegrass; [12],0
same,"Plant response rating, Ryegrass, Italian",Italian ryegrass; [13],10
same,"Plant response rating, Ryegrass, Italian",Italian ryegrass; [14],5
same,"Plant response rating (0 to 100), Soybean",soybean; [11],35
same,Soybean plant response rating,soybean; [12],50
same,"Plant response rating, Soybean",soybean; [13],95
same,"Plant response rating, Soybean",soybean; [14],50
same,Morningglory plant response rating,morningglory; 125 g ai/ha,90
same,"Plant response rating, Morningglory",morningglory; 500 g ai/ha,100
same,"Crabgrass, Large plant response rating",large (Lg) crabgrass [6]; 125 g ai/ha,70
same,"Plant response rating, Crabgrass, Large",large (Lg) crabgrass [6]; 500 g ai/ha,90
same,"Plant response rating (0 to 100), Kochia",kochia; [11],70
same,Kochia plant response rating,kochia; [12],100
same,"Plant response rating, Kochia",kochia; [13],100
same,"Plant response rating, Kochia",kochia; [14],100
same,"Plant response rating (0 to 100), Johnsongrass",johnsongrass; [11],0
same,Johnsongrass plant response rating,johnsongrass; [12],5
same,"Plant response rating, Johnsongrass",johnsongrass; [13],20
same,"Plant response rating, Johnsongrass",johnsongrass; [14],5
same,Velvetleaf plant response rating (0 to 100 scale),velvetleaf [7]; 125 g ai/ha,20
same,Velvetleaf plant response rating,velvetleaf [7]; [10],40
same,Velvetleaf plant response rating,velvetleaf [8]; 125 g ai/ha,100
same,"Plant response rating, Velvetleaf",velvetleaf [8]; 500 g ai/ha,100
same,Corn plant response rating,corn [9]; 125 g ai/ha,40
same,"Plant response rating, Corn",corn [9]; 500 g ai/ha,40
